Source: patent US20250179114A1, “Anti-Inflammatory Compound and Use Thereof” (DUALITY BIOLOGICS (SUZHOU) CO., LTD., priority 2021, published 2025)

The compounds below were run against T1, glucocorticoid receptor (Homo sapiens, UniProt P04150) (assay: Activity assay of glucocorticoid receptor reporter gene GRE). Conditions: HEK293 cells transfected with pGL5 and pBIND-GR; 24 h; Dual-Glo luciferase.
T1 construct: host or cells: HEK293
T1 sequence (P04150 1-777): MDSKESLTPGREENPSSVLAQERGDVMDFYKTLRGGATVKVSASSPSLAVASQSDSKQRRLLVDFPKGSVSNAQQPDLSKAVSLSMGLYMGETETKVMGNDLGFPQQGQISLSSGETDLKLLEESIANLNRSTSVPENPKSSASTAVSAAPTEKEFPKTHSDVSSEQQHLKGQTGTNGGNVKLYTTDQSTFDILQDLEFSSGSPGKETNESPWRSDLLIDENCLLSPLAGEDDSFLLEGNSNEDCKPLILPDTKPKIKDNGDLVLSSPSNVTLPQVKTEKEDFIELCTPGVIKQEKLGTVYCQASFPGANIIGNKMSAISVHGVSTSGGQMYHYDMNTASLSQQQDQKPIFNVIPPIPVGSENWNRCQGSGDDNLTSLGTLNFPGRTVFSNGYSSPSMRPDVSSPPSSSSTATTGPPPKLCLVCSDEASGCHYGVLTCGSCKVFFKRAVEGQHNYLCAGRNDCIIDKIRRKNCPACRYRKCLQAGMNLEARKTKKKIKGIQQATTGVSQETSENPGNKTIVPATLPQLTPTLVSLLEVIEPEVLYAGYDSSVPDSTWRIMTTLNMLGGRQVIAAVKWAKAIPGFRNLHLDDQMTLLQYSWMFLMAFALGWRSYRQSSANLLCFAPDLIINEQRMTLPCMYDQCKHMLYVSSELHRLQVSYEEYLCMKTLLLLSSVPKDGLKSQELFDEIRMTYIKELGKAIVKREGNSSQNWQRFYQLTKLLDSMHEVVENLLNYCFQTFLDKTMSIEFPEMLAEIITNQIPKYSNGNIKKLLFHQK
Assay type: cell-based
Description: HEK293 cells were cultured in DMEM+10% FBS medium in a carbon dioxide incubator humidified at 37° C. with 5% carbon dioxide.
HEK293 cells were digested with trypsin, and the HEK293 cell resuspension was adjusted to 200,000 cell/mL in medium (96 well plate: 100 μL/well).
Transfection reagent mixtures were prepared according to Tables 5a and 5b below, mixed well and left to stand at room temperature for 20 min.
The prepared transfection mixtures were added to 10 mL of the cell density-adjusted resuspension, mixed well by turning the mixtures upside down, and seeded into a 96-well plate at a volume of 100 μL/well.
The 96-well plate was incubated in a humidified incubator at 37° C. with 5% carbon dioxide for 24 h.
The test plate was placed back into the incubator and incubated for 24 h.
The test plate was detected using the Dual-Glo Luciferase Assay System kit from Promega, and the fluorescence signal of Firefly Luciferase and the fluorescence signal of Renilla Luciferase were read using Enspire, respectively.
The final measurement value was a normalized value “F/R” obtained by dividing the Firefly Luciferase fluorescent signal by the Renilla Luciferase fluorescent signal.
The data were copied and pasted into Excel, and the activation rate was obtained through an equation.
The data were imported into MS Excel and subjected to curve fitting by using XLFit excel add-in version 5.4.0.8 to obtain an EC50 value.
Y is the agonism and X is the concentration of the compound.

| Structure (SMILES) | EC50 [nM] |
| --- | --- |
| C[C@]12C=CC(=O)C=C1CC[C@@H]1[C@@H]2[C@@H](O)C[C@@]2(C)[C@H]1C[C@H]1O[C@@H](c3coc(Cc4cccc(N)c4)c3)O[C@]12C(=O)CO [Compound 20] | > 1000 |
| C[C@]12C=CC(=O)C=C1CC[C@@H]1[C@@H]2[C@@H](O)C[C@@]2(C)[C@H]1C[C@H]1O[C@@H](c3cc(Cc4cccc(N)c4)cs3)O[C@]12C(=O)CO [Compound 18] | 0.28 |
| CC12C=CC(=O)C=C1CCC1C2C(O)CC2(C)C1CC1OC(c3ccc(Oc4cccc(N)c4)cn3)OC12C(=O)CO [Compound 19, (6aR,6bS,7S,8aS,8bS,10R,11aR,12aS,12bS)-10-(5-(3-aminophenoxy)pyridin-2-yl)-7-hydroxy-8b-(2-hydroxyacetyl)-6a,8a-dimethyl-1,2,6a,6b,7,8,8a,8b,11a,12,12a,12b-dodecahydro-4H-naphtho[2′,1′:4,5]indeno[1,2-d][1,3]dioxol-4-one] | > 1000 |
| C[C@]12C=CC(=O)C=C1CC[C@@H]1[C@@H]2[C@@H](O)C[C@@]2(C)[C@H]1C[C@H]1O[C@@H](c3cnc(Cc4cccc(N)c4)s3)O[C@]12C(=O)CO [Compound 28, reference compound] | 10 |
| C[C@]12C=CC(=O)C=C1CC[C@@H]1[C@@H]2[C@@H](O)C[C@@]2(C)[C@H]1C[C@H]1O[C@H](c3cnc(Cc4cccc(N)c4)s3)O[C@]12C(=O)CO [Compound 28S] | > 1000 |
| C[C@]12C=CC(=O)C=C1CC[C@H]1[C@@H]3C[C@H]4O[C@@H](c5ccn(Cc6cccc(N)c6)c5)O[C@@]4(C(=O)CO)[C@@]3(C)C[C@H](O)[C@@]12F [Compound 7] | 0.13 |
| C[C@]12C=CC(=O)C=C1CC[C@@H]1[C@@H]2[C@@H](O)C[C@@]2(C)[C@H]1C[C@H]1O[C@@H](c3ccc(Cc4cccc(N)c4)s3)O[C@]12C(=O)CO [Compound 11] | 0.37 |
| C[C@]12C=CC(=O)C=C1CC[C@H]1[C@@H]3C[C@H]4O[C@@H](c5ccn(Cc6ccc(N)cc6)c5)O[C@@]4(C(=O)CO)[C@@]3(C)C[C@H](O)[C@@]12F [Compound 8] | 0.07 |
| C[C@]12C=CC(=O)C=C1CC[C@@H]1[C@@H]2[C@@H](O)C[C@@]2(C)[C@H]1C[C@H]1O[C@@H](c3ccc(Cc4ccc(N)cc4)s3)O[C@]12C(=O)CO [Compound 15] | 0.63 |
